From patent publication US20230331803A1, “CO-AGONISTS OF THE GLP-1 AND AMYLIN RECEPTORS” (priority 2020, published 2023) come the findings set out here.

One assay deals with T1, human GLP-1 receptor (Homo sapiens, UniProt P43220).
T1 construct: expressed in transfected cells; host or cells: BHK (Baby Hamster Kidney) cells, clone BHK 467-12A KZ-10, stably transfected, with CRE-luciferase reporter
Put plainly: Human GLP-1 receptor in vitro potency assay (CRE-luciferase reporter, BHK cells). The format is cell-based. For orientation: Reporter assays use an easily measured gene product as a stand-in for the process of interest.

The target of assay [1] is T2, human amylin receptor (hAmyR3) (Homo sapiens, UniProt O60896+P30988).
T2 construct: host or cells: BHK cells (Hollex-1 line: human calcitonin receptor (a) + CRE-Luc), further transfected with human RAMP3
The assay can be described thus: Human amylin receptor in vitro potency assay (CRE-luciferase reporter, BHK cells).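 Note: BHK cells expressing human calcitonin receptor plus RAMP3 (amylin-3 receptor) with a CRE-luciferase reporter, agonist activity read as luminescence from cAMP-driven transcription, 7-point serial dilutions.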 The format is cell-based.

Where [2] appears, read: Table 4a, BHK cells expressing human GLP-1R, CRE-Luc, 3 hours, read-out: Human GLP-1R potency [EC50 (pM)].
The mark [3] stands for this setting: Table 4a, BHK hAmyR3/CRE-Luc cells, 3 hours, read-out: Human AmyR3 potency [EC50 (pM)].

Like-named read-outs stand apart in the source and are kept apart here. Starred links: 1 amine or outer side, 2 acyl side, 3 side chain; linkers in the order of their positions; H or OH if unused. Non-standard residues stand in square brackets, D forms with d. Groups on a side chain read outwards from the residue. *: point of attachment. Butyryl(4-SO2NHCO(CH2)16Tz) = O=C(CCCCCCCCCCCCCCCCc1nnn[nH]1)NS(=O)(=O)CCCC(=O)*; Decanoyl(10-(4-HOOC-PhO)) = O=C(O)c1ccc(OCCCCCCCCCC(=O)*)cc1; C20 diacid = O=C(O)CCCCCCCCCCCCCCCCCCC(=O)*; C18 diacid = O=C(O)CCCCCCCCCCCCCCCCC(=O)*; C16 diacid = O=C(O)CCCCCCCCCCCCCCC(=O)*; γGlu = O=C(O)[C@H](CCC(=O)[*:2])N[*:1]; C14 diacid = O=C(O)CCCCCCCCCCCCC(=O)*; εLys = N[C@@H](CCCCN[*:1])C(=O)[*:2]; Trx = NC[C@H]1CC[C@H](C(=O)O)CC1; AEEA = NCCOCCOCC(=O)O; Aib = CC(C)(N)C(=O)O

T2 sequence (P30988 25-474): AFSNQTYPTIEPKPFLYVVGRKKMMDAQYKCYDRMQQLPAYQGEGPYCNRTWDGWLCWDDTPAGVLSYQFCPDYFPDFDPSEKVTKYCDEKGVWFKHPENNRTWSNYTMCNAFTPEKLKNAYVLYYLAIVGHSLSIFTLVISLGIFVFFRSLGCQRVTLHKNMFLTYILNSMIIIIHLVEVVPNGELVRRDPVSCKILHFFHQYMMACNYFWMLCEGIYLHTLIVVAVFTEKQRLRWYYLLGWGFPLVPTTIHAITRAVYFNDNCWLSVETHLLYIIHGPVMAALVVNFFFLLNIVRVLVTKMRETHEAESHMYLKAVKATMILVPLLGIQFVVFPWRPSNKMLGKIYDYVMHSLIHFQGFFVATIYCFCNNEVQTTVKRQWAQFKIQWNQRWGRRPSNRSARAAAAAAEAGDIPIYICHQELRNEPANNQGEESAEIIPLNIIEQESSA
T2 sequence (O60896 24-148): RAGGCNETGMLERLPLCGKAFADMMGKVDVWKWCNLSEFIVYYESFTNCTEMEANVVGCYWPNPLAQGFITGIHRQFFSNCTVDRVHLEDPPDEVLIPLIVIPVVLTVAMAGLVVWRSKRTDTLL
T1 sequence (P43220 24-463): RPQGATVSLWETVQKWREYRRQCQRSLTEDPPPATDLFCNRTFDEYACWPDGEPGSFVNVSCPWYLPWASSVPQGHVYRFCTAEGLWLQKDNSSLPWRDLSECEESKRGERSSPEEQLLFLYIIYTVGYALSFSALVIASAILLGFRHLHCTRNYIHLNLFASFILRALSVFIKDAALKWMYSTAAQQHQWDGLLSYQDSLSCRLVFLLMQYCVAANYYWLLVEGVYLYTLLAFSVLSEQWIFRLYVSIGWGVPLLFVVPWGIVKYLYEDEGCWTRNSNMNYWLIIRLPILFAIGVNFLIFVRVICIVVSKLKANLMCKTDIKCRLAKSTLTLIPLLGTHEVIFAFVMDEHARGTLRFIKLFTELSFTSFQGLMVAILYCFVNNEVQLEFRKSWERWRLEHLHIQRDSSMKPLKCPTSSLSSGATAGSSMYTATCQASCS

Broadly, the EC50 is the concentration that produces a half-maximal response. Regarding “H-H[Aib]EGTFTSDVSSYLEEQAAREFIAWLVRGRK([AEEA-AEEA-γGlu-C18 diacid])GGGGSGGGEASELSTAALGRLSAELHELATLPRTETGSGSP-NH2 [Compound 0637]”, the EC50 on human GLP-1 receptor (setting [2]) was 1.9 pM; in assay [1] (setting [3]), 14.1 pM.
The matching figures for “H-H[Aib]EGTFTSDVSSYLEEQAAREFIAWLVRGRK([AEEA-γGlu-C18 diacid])GGGGEASELSTAALGRLSAELHELATLPRTETGSGSP-NH2 [Compound 0660]”: 3.9 pM and 12.7 pM.
Turning to “HGEGTFTSDVSSYLEEQAARK([AEEA-AEEA-γGlu-Decanoyl(10-(4-HOOC-PhO))])FIEWLVRGK([AEEA-AEEA-γGlu-Decanoyl(10-(4-HOOC-PhO))])GEGGGGGGGGGEASELSTAALGRLSAELHELATLPRTETGSGSP-NH2 [Compound 0098]”, the results for the EC50 (at human GLP-1 receptor; in assay [1]) were 7.9 pM and 15.6 pM, respectively.
Regarding “H-H[Aib]EGTFTSDVSSYLEEQAARK([AEEA-AEEA-γGlu-C18 diacid])FIEWLVRGK([AEEA-AEEA-γGlu-C18 diacid])GGEASELSTAALGRLSAELHELATLPRTETGSGSP-NH2 [Compound 0128]”, the EC50 on human GLP-1 receptor (setting [2]) amounted to 9.7 pM; in assay [1] (setting [3]), 110 pM.
Take “H-H[Aib]EGTFTSDVSSYLEGQAAREFIAWLVRGRGQEPK([AEEA-AEEA-γGlu-C18 diacid])GQAPASRLSTEALGRLSAELHELATLPRTETGSGSP-NH2 [Compound 0191]”: the results for the EC50 (on human GLP-1 receptor (setting [2]); in assay [1] (setting [3])) were 5.9 pM and 54.8 pM, respectively.
The like results for `CC[C@H](C)[C@H](NC(=O)[C@H](Cc1ccccc1)NC(=O)[C@H](CCCCNC(=O)COCCOCCNC(=O)COCCOCCNC(=O)CC[C@H](NC(=O)CCCCCCCCCCCCCCC(=O)O)C(=O)O)NC(=O)[C@H](CCCNC(=N)N)NC(=O)[C@H](C)NC(=O)[C@H](C)NC(=O)[C@H](CCC(N)=O)NC(=O)[C@H](CCC(=O)O)NC(=O)[C@H](CCC(=O)O)NC(=O)[C@H](CC(C)C)NC(=O)[C@H](Cc1ccc(O)cc1)NC(=O)[C@H](CO)NC(=O)[C@H](CO)NC(=O)[C@@H](NC(=O)[C@H](CC(=O)O)NC(=O)[C@H](CO)NC(=O)[C@@H](NC(=O)[C@H](Cc1ccccc1)NC(=O)[C@@H](NC(=O)CNC(=O)[C@H](CCC(=O)O)NC(=O)C(C)(C)NC(=O)[C@@H](N)Cc1c[nH]cn1)[C@@H](C)O)[C@@H](C)O)C(C)C)C(=O)N[C@@H](CCC(=O)O)C(=O)N[C@@H](Cc1c[nH]c2ccccc12)C(=O)N[C@@H](CC(C)C)C(=O)N[C@H](C(=O)N[C@@H](CCCNC(=N)N)C(=O)NCC(=O)N[C@@H](CCCCNC(=O)COCCOCCNC(=O)COCCOCCNC(=O)CC[C@H](NC(=O)CCCCCCCCCCCCCCC(=O)O)C(=O)O)C(=O)NCC(=O)N[C@@H](CCC(=O)O)C(=O)NCC(=O)N[C@@H](CCC(N)=O)C(=O)N[C@@H](CCC(=O)O)C(=O)N1CCC[C@H]1C(=O)NCC(=O)NCC(=O)N[C@@H](C)C(=O)N[C@@H](CO)C(=O)N[C@@H](CCC(=O)O)C(=O)N[C@@H](CC(C)C)C(=O)N[C@@H](CO)C(=O)N[C@H](C(=O)N[C@@H](C)C(=O)N[C@@H](C)C(=O)N[C@@H](CC(C)C)C(=O)NCC(=O)N[C@@H](CCCNC(=N)N)C(=O)N[C@@H](CC(C)C)C(=O)N[C@@H](CO)C(=O)N[C@@H](C)C(=O)N[C@@H](CCC(=O)O)C(=O)N[C@@H](CC(C)C)C(=O)N[C@@H](Cc1c[nH]cn1)C(=O)N[C@@H](CCC(=O)O)C(=O)N[C@@H](CC(C)C)C(=O)N[C@@H](C)C(=O)N[C@H](C(=O)N[C@@H](CC(C)C)C(=O)N1CCC[C@H]1C(=O)N[C@@H](CCCNC(=N)N)C(=O)N[C@H](C(=O)N[C@@H](CCC(=O)O)C(=O)N[C@H](C(=O)NCC(=O)N[C@@H](CO)C(=O)NCC(=O)N[C@@H](CO)C(=O)N1CCC[C@H]1C(N)=O)[C@@H](C)O)[C@@H](C)O)[C@@H](C)O)[C@@H](C)O)C(C)C` [Compound 0105] were, in that order, 1.1 pM and 30.8 pM.
The like results for “H-HGEGTFTSDVSSYLEEQAARK([AEEA-AEEA-γGlu-C14 diacid])FIEWLVRGK([AEEA-AEEA-γGlu-C14 diacid])GEASELSTAALGRLSAELHELATLPRTETGSGSP-NH2 [Compound 0039]” were, in that order, 34.8 pM and 59.5 pM.
With “H-H[Aib]EGTFTSDVSSYLEEK([AEEA-AEEA-γGlu-C16 diacid])AAREFIAWLVRGRGGGGGEASELSTAALGRLSAELHELK([AEEA-AEEA-γGlu-C16 diacid])TLPRTETGSGSP-NH2 [Compound 0396]”, the results for the EC50 (at human GLP-1 receptor (setting [2]); in assay [1] (setting [3])) were 4.8 pM and 32.8 pM, respectively.
The matching figures for “H-H[Aib]EGTFTSDVSSYLEEQAAREFIAWLVRGRK([AEEA-AEEA-AEEA-AEEA-γGlu-C18 diacid])GGGGEASELSTAALGRLSAELHELATLPRTETGSGSP-NH2 [Compound 0662]”: 3 pM and 14.6 pM.
The matching figures for “H-H[Aib]EGTFTSDVSSYLEEQAAREFIEWLVRGK(Butyryl(4-SO2NHCO(CH2)16Tz))GGGASELSTAALGRLSAELHELATLPRTETGSGSP-NH2 [Compound 0146]”: 25.7 pM and 14 pM.
Regarding “HWEGTFTSDVSSYLEEK([AEEA-AEEA-γGlu-C20 diacid])AAREFIEWLVRGRGEASELSTAALGRLSAELHELATLPRTETGSGSP-NH2 [Compound 0473]”, the EC50 at human GLP-1 receptor (setting [2]) was determined as 3.1 pM; in assay [1] (setting [3]), 16.2 pM.
For the molecule “H-H[Aib]EGTFTSDVSSYLEEK([AEEA-AEEA-γGlu-C16 diacid])AAREFIAWLVRGRGGGGGEASELSTAALGRLSAELHELATLK([AEEA-AEEA-γGlu-C16 diacid])RTETGSGSP-NH2 [Compound 0397]”, the EC50 on human GLP-1 receptor (setting [2]) was determined as 3.8 pM; in assay [1] (setting [3]) it was 18.5 pM.
With “H-Aib-EGTFTSDVSSYLEGQAA-K([2-[2-[2-[[2-[2-[2-[[(4S)-4-Carboxy-4-(17-Carboxyheptadecanoylamino)Butanoyl]Amino]Ethoxy]Ethoxy]Acetyl]Amino]Ethoxy]Ethoxy]Acetyl])-EFIAWLVRGRGGQEPGQEPCNTATCATQRLAEFLRHSSNNFGPILPPTNVGSNTP-amide [Comparator compound 0015, reference compound]”, the EC50 on human GLP-1 receptor (read-out: Human GLP-1 R potency [EC50 (pM)], Table 4c, further comparator compounds) came to 45 pM; in assay [1] (Table 4c, further comparator compounds, read-out: Human AmyR3 potency [EC50 (pM)]), 312 pM. For the same molecule, the “Ability to agonise the amylin receptor, in words” value in assay [1] (Tables 4a-4c) is given as “poor agonist of the amylin receptor”.
Consider “H-H[Aib]EGTFTSDVSSYLEEQAAREFIAWLVRGRK([εLys-εLys-γGlu-C20 diacid])GGGGEASELSTAALGRLSAELHELATLPRTETGSGSP-NH2 [Compound 0657]”, for which the EC50 at human GLP-1 receptor (setting [2]) is 9.9 pM; in assay [1] (setting [3]), 10.4 pM.
Take “H-H[Aib]EGTFTSDK([AEEA-AEEA-γGlu-C16 diacid])SSYLEEQAAREFIAWLVRGRGGGGGEASELSTAALGRLSAELHELATLK([AEEA-AEEA-γGlu-C16 diacid])RTETGSGSP-NH2 [Compound 0261]”: the EC50 was determined as 17.4 pM at human GLP-1 receptor (setting [2]) and 23.9 pM in assay [1] (setting [3]).
The matching figures for “H-H[Aib]EGTFTSK([AEEA-AEEA-γGlu-Trx-C20 diacid])VSSYLEEQAAREFIEWLVRGRGEASELSTAALGRLSAELHELATLPRTETGSGSP-NH2 [Compound 0417]”: 97.8 pM and 21 pM.
The matching figures for “H-H[Aib]EGTFTSDVSSYLEEQAAREFIAWLVRGRK([γGlu-C20 diacid])EASELSTAALGRLSAELHELATLPRTETGSGSP-NH2 [Compound 0141]”: 43.3 pM and 13.2 pM.
For the molecule “H-H[Aib]EGTFTSDVSSYLEEQAAREFIAWLVRGRK(Butyryl(4-SO2NHCO(CH2)16Tz))ELSTAALGRLSAELHELATLPRTETGSGSP-NH2 [Compound 0102]”, the results for the EC50 (at human GLP-1 receptor (setting [2]); in assay [1] (setting [3])) were 14.7 pM and 9.8 pM, respectively.
